Experimental findings from patent US20260103471A1, “CYCLIC UREA THIAZOLYL COMPOUNDS FOR TREATMENT OF HSV” (Assembly Biosciences, Inc., priority 2022, published 2026) are described below.

The assay concerns HSV-2 G strain. Kind of assay: HSV-2 Antiviral Assay (Vero cells, cell viability). The assay is classed as cell-based. The note with it: Human alphaherpesvirus 2, Vero, 120 h, Vero cells, 160 TCID50 HSV-2 G strain, 5 days, cell viability. As for the experimental part: Vero cells were cultured in Dulbecco's Modified Eagle Medium (DMVEM) supplemented with […] and 100 units/mL penicillin and streptomycin. The cells were passaged 2-3 times per week to maintain sub-confluent densities.
Vero cells were seeded into 96-well plates at a density of 1.0×10^4 cells per well and allowed to attach overnight. Following attachment, the media was replaced with 50 μL of infection medium (DMEM supplemented with 2% fetal bovine serum and 100 units/mL penicillin and streptomycin). A Tecan D300e digital dispenser was then used to add compounds to the culture using an 8-point 3-fold serial dilution format. The DMSO concentration was normalized to 0.5% for all treatments. Following compound addition, 50 μL of infection medium containing 160 TCID50 HSV-2 G strain was added to the cells and incubated at 37° C. for 5 days. After the incubation, 10 μL/well of WST-8 chromogenic reagent was added and the plates incubated at 37° C. for 3 hours. Following the incubation, cell viability was quantified by measuring the absorbance at 460 nm and 620 nm using a Tecan Infinite M1000 Pro plate reader.
With `Cc1nc(N2CCCN(c3ccc(-c4ccccc4F)cc3)C2=O)sc1S(=O)(=O)C(F)F` [Compound 412, 1-(5-((difluoromethyl)sulfonyl)-4-methylthiazol-2-yl)-3-(2′-fluoro-[1,1′-biphenyl]-4-yl)tetrahydropyrimidin-2(1H)-one], the EC50 (in general, the midpoint of the concentration-response curve) was in the range of 0.1 to 1 µM.

On to `COCc1c(F)cc(F)cc1-c1ccc(N2CCCN(c3nc(C)c(S(N)(=O)=O)s3)C2=O)cc1` [Compound 221], for which the EC50 is below 0.1 µM.

Compound `Cc1nc(N2CC3(COC3)CN(c3ccc(-c4cc(F)ccn4)cc3)C2=O)sc1S(N)(=O)=O` [Compound 379] showed an EC50 below 0.1 µM.

With `Cc1nc(N2CCCN(c3ccc(-c4ccc(F)cc4)cc3)C2=O)sc1S(N)(=O)=O` [Compound 189], the EC50 was 0.1 to 1 µM.

Consider `Cc1nc(N2CCCCN(c3ccc(-c4cc(F)ccc4F)cc3)C2=O)sc1[S@@](C)(=N)=O` (single isomer, unassigned) [Compound 426], for which the EC50 was below 0.1 µM.

As to `Cc1nc(N2CCCN(c3ccc(-c4cc(F)cc5c4c(C)cn5C)cc3)C2=O)sc1S(N)(=O)=O` [Compound 291], the EC50 was below 0.1 µM.

Compound `Cc1nc(N2CCCN(c3ccc(-c4c(F)ccc5ncsc45)cc3)C2=O)sc1S(N)(=O)=O` [Compound 70] registered an EC50 below 0.1 µM.

In turn, `COc1ccc(F)cc1-c1ccc(N2CC(C)CN(c3nc(C)c(S(N)(=O)=O)s3)C2=O)cc1` (stereo not shown) [Compound 329] returned an EC50 below 0.1 µM.

Regarding `Cc1nc(N2CCCN(c3ccc(-c4cccc5sccc45)cc3)C2=O)sc1S(N)(=O)=O` [Compound 285], the EC50 was below 0.1 µM.

As for `Cc1nc(N2CCCN(c3ccc(-c4cc(C5CC5)ccc4F)cc3)C2=O)sc1S(N)(=O)=O` [Compound 205], the EC50 lay in the range of 0.1 to 1 µM.

On to `Cc1nc(N2CC3(COC3)CN(c3ccc(-c4cc(F)cc5nonc45)cc3)C2=O)sc1S(N)(=O)=O` [Compound 341], for which the EC50 is below 0.1 µM.

In turn, `Cc1nc(N2CCN(c3ccc(-c4cc(F)cc5nsnc45)cc3)C2=O)sc1S(N)(=O)=O` [Compound 314] had an EC50 below 0.1 µM.

In turn, `Cc1nc(N2CCCN(c3ccc(-n4cnc5ccccc54)cc3)C2=O)sc1S(N)(=O)=O` [Compound 94] returned an EC50 of 1 to 5 µM.

As to `COc1cc(-c2ccc(N3CCCN(c4nc(C)c(S(N)(=O)=O)s4)C3=O)cc2)c2scnc2c1` [Compound 252], the EC50 is below 0.1 µM.

Compound `Cc1nc(N2CCCN(c3ccc(-c4cc(C(C)(C)C)ccc4F)cc3)C2=O)sc1S(N)(=O)=O` [Compound 204] showed an EC50 of 1 to 5 µM.

`Cc1nc(N2CC[C@H](C)N(c3ccc(-c4cc(F)ccc4F)cc3)C2=O)sc1S(N)(=O)=O` (single isomer, unassigned) [Compound 334] showed an EC50 below 0.1 µM.

Compound `Cc1nc(N2CCCN(c3ccc(-c4cc(-c5cncs5)ccc4F)cc3)C2=O)sc1S(N)(=O)=O` [Compound 230] yielded an EC50 of 0.1 to 1 µM.

Compound `Cc1nc(N2CCCN(c3ccc(-c4cccc5cc(N)ncc45)cc3)C2=O)sc1S(N)(=O)=O` [Compound 268] came in with an EC50 below 0.1 µM.

For `Cc1nc(N2CCCN(c3ccc(-c4cc(F)ccc4F)c4scnc34)C2=O)sc1S(N)(=O)=O` [Compound 311], the EC50 lay within 0.1 to 1 µM.

`Cc1nc(N2CCCN(c3ccc(-c4snc5c(F)cc(F)cc45)cc3)C2=O)sc1S(N)(=O)=O` [Compound 306] returned a 50% effective concentration (EC50) below 0.1 µM.

Regarding `Cc1nc(N2CCCN(c3ccc(-c4ccc(C#N)c5c4ccn5C)cc3)C2=O)sc1S(N)(=O)=O` [Compound 300], the EC50 lay within 0.1 to 1 µM.

`Cc1nc(N2CCC(C)N(c3ccc(-c4cc(F)ccc4F)cc3)C2=O)sc1S(N)(=O)=O` (stereo not shown) [Compound 332] yielded an EC50 below 0.1 µM.

`Cc1cc(F)cc(-c2ccc(N3CCCN(c4nc(C)c(S(N)(=O)=O)s4)C3=O)cc2)n1` [Compound 237] yielded an EC50 below 0.1 µM.

As to `COCCCNS(=O)(=O)c1sc(N2CCCN(c3ccc(-c4cc(F)cc5nsnc45)cc3)C2=O)nc1C` [Compound 419], the EC50 is below 0.1 µM.

In turn, `Cc1nc(N2CCCN(c3ccc(-c4ccc(F)c(F)c4)cc3)C2=O)sc1S(N)(=O)=O` [Compound 190] displayed an EC50 of 0.1 to 1 µM.

With `Cc1nc(N2CCCN(c3ccc(-c4ccc(C#N)c5nsnc45)cc3)C2=O)sc1S(N)(=O)=O` [Compound 286], the EC50 lay within 1 to 5 µM.

With `CN=[S@@](C)(=O)c1sc(N2CCCN(c3ccc(-c4ccccc4F)cc3)C2=O)nc1C` (single isomer, unassigned) [Compound 147], the half-maximal effective concentration (EC50) is below 0.1 µM.

`Cc1nc(N2CC3(COC3)CN(c3ccc(-c4cc(F)ccc4F)cc3)C2=O)sc1[S@](C)(=N)=O` (single isomer, unassigned) [Compound 433] returned an EC50 below 0.1 µM.

With `Cc1nc(N2CCCN(c3ccc(-c4cc(F)ccc4F)cc3)C2=O)sc1S(=O)(=O)NCC1COC1` [Compound 404], the EC50 is below 0.1 µM.

Consider `Cc1nc(N2C[C@H](C)CN(c3ccc(-c4ccccc4)cc3)C2=O)sc1S(N)(=O)=O` (single isomer, unassigned) [Compound 327], for which the EC50 is below 0.1 µM.

As to `Cc1nc(N2CCCN(c3ccc(-c4cncc5nn(C)cc45)cc3)C2=O)sc1S(N)(=O)=O` [Compound 271], the EC50 is 1 to 5 µM.

Take `Cc1nc(N2CCCN(c3ccc(-c4cccc(-c5ccnn5C)c4)cc3)C2=O)sc1S(N)(=O)=O` [Compound 32]: the EC50 fell in the range of 0.1 to 1 µM.

Take `Cc1nc(N2CCCN(c3ccc(-c4cc(C#N)cc5ncsc45)cc3)C2=O)sc1S(N)(=O)=O` [Compound 278]: the concentration giving a half-maximal response (EC50) was 0.1 to 1 µM.

In the case of `Cc1nc(N2CCCN(c3ccc(-c4cc(F)ccc4F)cc3)C2=O)sc1S(=O)(=O)N1CCC(N)C1` (stereo not shown) [Compound 397], the EC50 lay in the range of 0.1 to 1 µM.

Regarding `Cc1nc(N2CCCN(c3ccc(-c4cccc5c(C)csc45)cc3)C2=O)sc1S(N)(=O)=O` [Compound 275], the EC50 was below 0.1 µM.

On to `Cc1nc(N2CCCN(c3ccc(-c4cc(F)cc5nc(C(F)(F)F)sc45)cc3)C2=O)sc1S(N)(=O)=O` [Compound 257], for which the EC50 was below 0.1 µM.

`CSc1ccc(F)cc1-c1ccc(N2CCCN(c3nc(C)c(S(N)(=O)=O)s3)C2=O)cc1` [Compound 223] registered an EC50 below 0.1 µM.

Turning to `COc1c(F)cc(F)cc1-c1ccc(N2C[C@H](C(F)(F)F)CN(c3nc(C)c(S(N)(=O)=O)s3)C2=O)cc1` (single isomer, unassigned) [Compound 374], the EC50 is below 0.1 µM.

`CNS(=O)(=O)c1sc(N2CCCN(c3ccc(-c4cccc5cc(N)ncc45)cc3)C2=O)nc1C` [Compound 411] came in with a concentration for a half-maximal effect (EC50) below 0.1 µM.

Turning to `Cc1nc(N2CCCN(c3ccc(-c4nn(C)c5ccccc45)cc3)C2=O)sc1S(N)(=O)=O` [Compound 92], the EC50 was below 0.1 µM.

In the case of `CO[C@@H]1CN(c2ccc(-c3cc(F)ccc3F)cc2)C(=O)N(c2nc(C)c(S(N)(=O)=O)s2)C1` (single isomer, unassigned) [Compound 358], the EC50 was in the range of 1 to 5 µM.

Consider `COc1cc(-c2ccc(N3CCCN(c4nc(C)c(S(N)(=O)=O)s4)C3=O)cc2)c2ccn(C)c2c1` [Compound 301], for which the EC50 is below 0.1 µM.

Compound `Cc1nc(N2CCCN(c3ccc(-c4cc(C(F)(F)F)ccn4)cc3)C2=O)sc1S(N)(=O)=O` [Compound 240] showed an EC50 of 0.1 to 1 µM.

`Cc1nc(N2CCCN(c3ccc(-c4cc(F)ccc4F)cc3)C2=O)sc1S(=O)(=O)NCC(C)CO` (stereo not shown) [Compound 394]: the EC50 was below 0.1 µM.

As for `Cc1nc(N2CC(C(N)=O)CN(c3ccc(-c4cc(F)ccc4F)cc3)C2=O)sc1S(N)(=O)=O` (stereo not shown) [Compound 381], the EC50 lay in the range of 0.1 to 1 µM.

In turn, `Cc1nc(N2C[C@H](O)CN(c3ccc(-c4cc(F)ccc4F)cc3)C2=O)sc1S(N)(=O)=O` (single isomer, unassigned) [Compound 354] showed an EC50 below 0.1 µM.

`COC(=O)C1CN(c2ccc(-c3cc(F)ccc3F)cc2)C(=O)N(c2nc(C)c(S(N)(=O)=O)s2)C1` (stereo not shown) [Compound 384] had an EC50 below 0.1 µM.

`Cc1nc(N2CCCCN(c3ccc(-c4cccc5ncsc45)cc3)C2=O)sc1S(C)(=N)=O` (stereo not shown) [Compound 428] had an EC50 below 0.1 µM.

The compound `Cc1nc(N2CCCN(c3ccc(-c4cccc(C5(C#N)CC5)c4)cc3)C2=O)sc1S(N)(=O)=O` [Compound 198] returned an EC50 below 0.1 µM.

Consider `Cc1nc(N2CC(C(F)F)CN(c3ccc(-c4cc(F)ccc4F)cc3)C2=O)sc1S(N)(=O)=O` (stereo not shown) [Compound 349], for which the EC50 was below 0.1 µM.

Compound `Cc1nc(N2CC(C#N)CN(c3ccc(-c4cc(F)ccc4F)cc3)C2=O)sc1S(N)(=O)=O` (stereo not shown) [Compound 360, 2-(5-cyano-3-(2′,5′-difluoro-[1,1′-biphenyl]-4-yl)-2-oxotetrahydropyrimidin-1(2H)-yl)-4-methylthiazole-5-sulfonamide] had an EC50 below 0.1 µM.

On to `Cc1nc(N2CC(F)(F)CN(c3ccc(-c4cc(F)ccc4F)cc3)C2=O)sc1S(N)(=O)=O` [Compound 367], for which the EC50 is below 0.1 µM.

Compound `Cc1nc(N2CCCN(c3ccc(-c4cncs4)cc3)C2=O)sc1S(N)(=O)=O` [Compound 49] had an EC50 of 0.1 to 1 µM.

The compound `COc1c(F)cc(F)cc1-c1ccc(N2CC(F)CN(c3nc(C)c(S(N)(=O)=O)s3)C2=O)cc1` (stereo not shown) [Compound 366] yielded an EC50 below 0.1 µM.

As to `Cc1nc(N2CCCN(c3ccc(-c4cc(F)ccc4F)cc3)C2=O)sc1S(=O)(=O)NCCC(C)(C)O` [Compound 393], the EC50 is below 0.1 µM.

For the compound `Cc1nc(N2CCCN(c3ccc(-c4ccccc4)c4sncc34)C2=O)sc1S(N)(=O)=O` [Compound 312], the EC50 fell in the range of 1 to 5 µM.

As for `Cc1nc(N2CCCN(c3ccc(-c4cccc(Cl)c4)cc3)C2=O)sc1S(N)(=O)=O` [Compound 191], the EC50 is below 0.1 µM.

Compound `Cc1nc(N2CCCN(c3ccc(-c4cc(F)ccc4F)cc3)C2=O)sc1S(=O)(=O)NCC(F)(F)CO` [Compound 392] came in with an EC50 below 0.1 µM.
